For data set [1], the target named is T1, Mcl-1 (Mus musculus, UniProt P97287).
T1 construct: with 151 N-terminal residues and 23 C-terminal residues removed; hexahistidine tag with thrombin cleavage site (N, cleaved yes); made in house; host or cells: Escherichia coli C41 (DE3)
As to the kind of experiment: Stopped-flow fluorescence association kinetics of PUMA constructs with Mcl-1. It is filed as binding. To be noted: chemical denaturants, lowering total protein concentration, altering temperature. Here is the method:
The synthetic genes for truncated mouse Mcl-1 (UniProt P97287) with 151 N-terminal residues and 23 C-terminal residues removed (Figure S2C) and GB1-PUMA (Figure S2D) were obtained from Genscript. The genes were inserted into a modified version of the pRSET A vector that encodes an N-terminal hexahistidine tag with a thrombin cleavage site between the tag and the protein. Due to the cleavage of thrombin, a GS is added at the N-termini of Mcl-1. Protein expression was carried out in Escherichia coli C41 (DE3) grown in LB media at 37 °C. […] Identity was confirmed using mass spectrometry, the concentration of GB1-PUMA was determined by the method of Gill von Hippel,[36] and the concentration of Mcl-1 was determined using amino acid analysis.
Mouse PUMA peptide, residues 128–161 (Uniprot Q99ML1) with the M144I mutation used in the NMR structure 2ROC[26], together with N-terminal acetylation and C-terminal amidation, was synthesized by Selleck Chemicals. […] Peptide concentration was determined using amino acid analysis and identity confirmed using mass spectrometry. […]
Association kinetics were monitored by following the change in intrinsic fluorescence on an SX18 or SX20 stopped-flow spectrometer (Applied Photophysics). […] Association kinetics were analyzed using eq 3([51]) that describes irreversible association of two proteins at initial concentrations [A]0 and [B]0: [drawing 3] […]

Data set [2] addresses T1, Mcl-1. Kind of data set: Ionic strength dependence of association rate constant (fit to eq 4). Format: binding. As for the experimental part:
Unless otherwise stated, experiments were carried out in 50 mM sodium phosphate, pH 7.0. For the ionic strength dependence of association protein and peptide were exchanged to the low ionic strength 10 mM MOPS, pH 7.0, buffer (I = 0.004 M) and then ionic strength was controlled using [NaCl]. NaOH was titrated to maintain neutral pH upon addition of NaCl.
Association kinetics were monitored by following the change in intrinsic fluorescence on an SX18 or SX20 stopped-flow spectrometer (Applied Photophysics). All PUMA solutions were incubated at 25 °C for 30 min before use to allow for dissociation of oligomers. Because of mixing artifacts, data collected before the first 5 ms were removed before fitting. Proteins were mixed at near equal (1–0.25 μM) concentrations. Association kinetics were analyzed using eq 3([51]) that describes irreversible association of two proteins at initial concentrations [A]0 and [B]0: [drawing 3] 3 where F is fluorescence, F0 the initial fluorescence, ΔF is the fluorescence amplitude of the reaction, [A]0 is the initial concentration of one protein, [B]0 the other, x = [B]0/[A]0, k+ is the association rate constant, and t is time. Where repeat measurements were made, standard errors are shown as error bars. Errors were propagated using standard equations. […]

Data set [3] deals with T1, Mcl-1. As to the kind of experiment: Viscosity dependence of association rate constant (glucose). Format: binding. The conditions noted are these: glucose as viscogen; relative rate constant vs relative viscosity. Here is the method: We measured k+ in varying concentrations of the small-molecule viscogen glucose and the observed k+ did indeed match the predicted rate constant (k0η0/η) (Figure 2B) and produce the standard viscosity plot[37] (k0/k+ vs η/η0) with the expected slope for a ‘diffusion-limited’ reaction, ∼1 (Figure 2C).
(§1) Association kinetics were monitored by following the change in intrinsic fluorescence on an SX18 or SX20 stopped-flow spectrometer (Applied Photophysics). All PUMA solutions were incubated at 25 °C for 30 min before use to allow for dissociation of oligomers. Because of mixing artifacts, data collected before the first 5 ms were removed before fitting. Proteins were mixed at near equal (1–0.25 μM) concentrations. Association kinetics were analyzed using eq 3([51]) that describes irreversible association of two proteins at initial concentrations [A]0 and [B]0: [drawing 3] 3 where F is fluorescence, F0 the initial fluorescence, ΔF is the fluorescence amplitude of the reaction, [A]0 is the initial concentration of one protein, [B]0 the other, x = [B]0/[A]0, k+ is the association rate constant, and t is time. Where repeat measurements were made, standard errors are shown as error bars. Errors were propagated using standard equations.

The target of data set [4] is T1, Mcl-1. As to the kind of experiment: Urea dependence of association rate constant. It is filed as binding.
From the text: Urea is a denaturing cosolvent used in protein folding studies to energetically disfavor structured states. […] However, increasing urea concentrations also makes solutions more viscous. […] Further, the natural log of k+ against concentration of urea is linear, with a gradient of m = 0.55 (±0.02) M^–1 (Figure 3D).
as §1

Data set [5] deals with T1, Mcl-1. Kind of data set: Temperature dependence of association rate constant. It is filed as binding. To be noted: stopped-flow fluorescence. Here is the method:
as §1

Data set [6] is described as follows: Circular dichroism, unbound PUMA helicity. It is filed as physicochemical. The conditions noted are these: CD. As for the experimental part: (§2) CD scans were taken in an Applied Photophysics Chirascan, using 10 to 2 mm path length cuvettes. Percentage helicity calculated using the mean residue ellipticity at 222 nm.[24]
Figure S9. Changes in helicity of PUMA peptide with solvent and temperature.
Due to the oligomerization of the PUMA peptide circular dichroism (CD) was recorded at the low concentration of 1 µM with a 10 mm pathlength cuvette to maximize signal.
Errors due to buffer subtraction and high absorbances prevent quantitative analysis of these spectra. However, each individual figure was recorded on the same day so qualitative conclusions can be drawn. (a) The helicity of the PUMA peptide is highly temperature dependent, with lower temperatures favoring helical conformations. (b) Increasing concentration of the denaturant urea results in the disfavoring of helical […]
significant change in CD signal.
Background: Circular dichroism is widely used to follow secondary structure.

In data set [7] the target is T1, Mcl-1. As to the kind of experiment: Circular dichroism of 1:1 complex with Mcl-1. Format: binding. To be noted: CD.
From the text: as §2

The nature of data set [8]: PUMA peptide oligomerization (CD, size-exclusion chromatography, SDS-PAGE). Format: physicochemical.
From the text: as §2
Figure S3. PUMA peptide undergoes reversible oligomerization to an α-helical structure. (a) The Circular dichroism spectra of the PUMA peptide becomes more α-helical at higher concentrations, consistent with the formation of an α-helical oligomer.
(b) Oligomers are visible on denaturing SDS-PAGE gel of PUMA peptide at ~10-100 µM concentrations. White numbers refer to elution volumes from FPLC trace (c). (c) […]
PUMA oligomers (i), for comparison a trace for a similar size monomeric peptide is […]
-200 Monomeric BH3 peptide
(1 picture or pasted object on this page, not shown here)

Data set [9] is described as follows: Intrinsic tryptophan fluorescence emission spectra. It is filed as physicochemical. To be noted: excitation at 280 nm; unbound. As for the experimental part:
(§3) Intrinsic tryptophan fluorescence was also used to probe the structural changes in these proteins upon association.
(§4) Figure S4. Fluorescence spectra of Mcl-1 and PUMA peptide show Mcl-1 is folded, PUMA is unfolded and binding occurs. […]
(§5) fluorescence spectrum characteristic of buried tryptophans whereas PUMA (blue) […]
(§6) An increase in fluorescence is seen upon mixing 1 µM: 1 µM of Mcl-1 and PUMA peptide. 1:1 complex (black solid line) […]
(§7) a greater signal than the spectrum predicted for no interaction (dashed line), which is the sum of the PUMA alone (blue) and Mcl-1 alone (magenta) spectra.

For data set [10], the target named is T1, Mcl-1. Kind of data set: Fluorescence change on complex formation with Mcl-1. To be noted: binding to Mcl-1; intrinsic tryptophan fluorescence. Here is the method: as §3, §4, §5, §6, §7
A further data set concerns folded Bcl-2 members. To be noted: cited from earlier work. The text has this:
The binding of BH3 regions to folded Bcl-2 family members is, due to their important physiological role and the large number of homologues, one of the most heavily studied coupled folding and binding reactions, particularly with respect to equilibrium binding constants obtained and structures solved.[21],[29] BH3 peptides have potential therapeutic value and have been the focus for the design of peptide-based mimics, including hydrocarbon staples,[42] α/β-peptides,[43] miniature proteins[44] and photoswitchable peptides.[45] To understand the general principles of binding, knowledge of kinetic ...

Data set [11] addresses truncated mouse Mcl-1 (induced myeloid leukemia cell differentiation protein), 151 N-terminal and 23 C-terminal residues removed (mouse) (UniProt P97287). As to the kind of experiment: stopped-flow fluorescence kinetics; intrinsic fluorescence; protein and peptide mixed at near equal concentrations (1-0.25 uM), also pseudo-first-order conditions; 50 mM sodium phosphate, pH 7.0; fit to irreversible association (eq 3).

Data set [12] concerns the molecule itself. Kind of data set: SEC + other: concentration dependent circular dichroism and denaturing SDS-PAGE; PUMA peptide alone at concentrations above 2 uM; reversible oligomerization.
The target in data set [13] is T2, truncated mouse Mcl-1 (induced myeloid leukemia cell differentiation protein), 151 N-terminal and 23 … (mouse, UniProt P97287 152-308). As to the kind of experiment: fluorescence kinetics after manual mixing; Mcl-1 and PUMA solutions manually mixed at nanomolar concentrations, fluorescence followed; fit to a model with association and dissociation. To be noted: both partners purified.

Data set [14] has as its target T2, truncated mouse Mcl-1 (induced myeloid …). As to the kind of experiment: stopped-flow fluorescence kinetics; intrinsic fluorescence; protein and peptide mixed at near equal concentrations (1-0.25 uM), also pseudo-first-order conditions; 50 mM sodium phosphate, pH 7.0; fit to irreversible association (eq 3). The conditions noted are these: both partners purified.
Data set [15] is described as follows: Mcl-1 urea unfolding by intrinsic tryptophan fluorescence. It is filed as physicochemical, mouse. The conditions noted are these: 1 µM Mcl-1, 25 °C, 50 mM PO4 pH 7.0, excitation 280 nm, emission 360 nm. As for the experimental part:
Figure S8. Mcl-1 remains folded up to 3.5 M urea. Mcl-1 fraction folded calculated
from the intrinsic tryptophan fluorescence of Mcl-1 (1 µM Mcl-1, 25 °C, 50 mM PO 4
pH 7.0, excitation at 280 nm, 10 nm pathlength, emission at 360 nm, 5nm pathlength).

Regarding “Ac-VEEEEWAREIGAQLRRIADDLNAQYERRRQEEQH-NH2 [PUMA peptide]”, the “dissociation of preformed Mcl-1 PUMA complex” value on Mcl-1 [1] is reported as “No solvent conditions could be found where preformed Mcl-1 PUMA complex could be observed to dissociate without unfolding the structured Mcl-1”. Further, at Mcl-1 [2] (10 mM MOPS, pH 7.0 (I = 0.004 M), ionic strength controlled with NaCl, fit to eq 4, a set to 6 Å), the “rate constant in the absence of long-range electrostatics k+basal” value is given as 6 (±1) × 10^5 M^–1 s^–1. Also, on Mcl-1 [2] (read-out: association rate constant k+ at high ionic strength), the kon is 100000 to 1e+06 M⁻¹ s⁻¹. For the same molecule, at Mcl-1 [3], the “slope of viscosity plot (k0/k+ vs η/η0)” value is recorded as 1.13 ± 0.02. Besides, the “effect of urea on k+” value at Mcl-1 [4] (increasing urea, compared with prediction from viscosity k0η0/η) was “decreased by significantly more than what would be expected due to viscosity effects alone”. Besides, the “m, gradient of ln(k+) against urea concentration” value on Mcl-1 [4] (urea 0 upward, stopped-flow) is 0.55 (±0.02) M^–1. Further, the “effect of temperature on association” value at Mcl-1 [5] was “An increase in temperature accelerates association”. In addition, the “change in helicity with temperature” value in data set [6] (1 µM, 10 mm pathlength cuvette, 15–60 °C, qualitative) is listed as “less helical at higher temperatures”. Also, in data set [6] (1 µM, 10 mm pathlength cuvette, urea 0–3 M, I 4–214 mM, qualitative), the “change in intrinsic helicity with ionic strength and urea” value was “showed little ionic strength dependence but was reduced in the presence of urea”. For the same molecule, the “residual helicity in the unbound state” value in [6] (mean residue ellipticity at 222 nm, 50 mM PO4, pH 7.0, 25 °C) is reported as around 20%. For the same molecule, the “helicity on binding Mcl-1” value on Mcl-1 [7] is on record as “increased α-helicity relative to the two proteins in isolation”. For the same molecule, in [8] (concentration dependent CD, size-exclusion chromatography and denaturing SDS-PAGE), the “concentration above which reversible oligomerization to highly α-helical structure occurs” value is listed as “above 2 μM”. Further, the “concentration at which oligomers are visible on gel” value in data set [8] (denaturing SDS-PAGE) fell in the range of 10 to 100 µM. This molecule came in with a fluorescence emission maximum in [9] of 360 nm. Moreover, on Mcl-1 [10], the “overall fluorescence change upon complex formation” value is “significant increase in overall fluorescence upon complex formation”. In the data set with folded Bcl-2 members, the “affinity for folded Bcl-2 members relative to other BH3 peptides” value is listed as “greater affinity than most other BH3 peptides”.

In turn, “GB1-PUMA: 90 aa chain containing a soluble GB1 domain fused to the N-terminus of the 34 aa PUMA peptide (from UniProt Q99ML1 128-161)” registered a kon in data set [11] of 1.29e+07 M⁻¹ s⁻¹.

Usually Kd stands for the concentration at which binding is half-saturated. Low values mean a tighter complex, high ones a looser complex. What is called koff is the rate constant with which the complex falls apart. As to Ac-VEEEEWAREIGAQLRRIADDLNAQYERRRQEEQH-NH2 (peptide, UniProt Q99ML1 128-161, looked up) [Mouse PUMA peptide, residues 128-161, M144I, N-terminal acetylation and C-terminal amidation], the binding result in [12] is reported as “binds”. In data set [13], this molecule had a Kd of 100 pM and a koff of 0.0016 s⁻¹. This molecule also came in with a kon in [14] of 1.59e+07 M⁻¹ s⁻¹.

B1: Mcl-1: truncated mouse Mcl-1 (UniProt P97287) with 151 N-terminal residues and 23 C-terminal residues removed; GS added at N-terminus (protein)
chain: GSEDDLYRQSLEIISRYLREQATGSKDSKPLGEAGAAGRRALETLRRVGDGVQRNHETAFQGMLRKLDIKNEGDVKSFSRVMVHVFKDGVTNWGRIVTLISFGAFVAKHLKSVNQESFIEPLAETITDVLVRTKRDWLVKQRGWDGFVEFFHVQDLEGG
modifications: left off: His6, N-terminal, cleaved
notes: truncated mouse Mcl-1 (UniProt P97287) with 151 N-terminal residues and 23 C-terminal residues removed; GS added at N-terminus
In turn, B1 gave a fluorescence emission maximum in [9] of 330 nm. In addition, the “urea concentration up to which protein remains folded” value in [15] was 3.5 M.

Source of the values: publication PMC3776562 (Journal of the American Chemical Society, 2013).
